Test results published in US12714669B2, “Liposomal formulations comprising AT1 receptor blockers and uses thereof” (YISSUM RESEARCH DEVELOPMENT COMPANY OF THE HEBREW …, priority 2020, dated 2026).
“Also recorded” adds a separate entry of the source. Read-outs that look alike come from different tables or passages of the source.

Legend:
[1] = system: mouse mean blood pressure (MBP); experiment: Liposomal valsartan activity on mice blood pressure (CODA monitor, tail); assay type: in vivo
Procedure: The development of liposomal ARB's aimed at delivering the drugs to the tumor and exert their activity there while avoiding the systemic effect of the drug on blood pressure. […] MBP was measured using CODA monitor device allowing measurement of blood pressure in mouse tail.
Four mice were tested before drug administration and 2, 24 and 48 h after drug administration. For each mouse, at least 3 measurements (and up to 10) were recorded for each time point.

AT1 receptor [2] = biological target: T1, AT1 receptor (Homo sapiens, UniProt P30556); experiment: IC50 / affinity to AT1 receptor (stated, not measured in the patent); assay type: binding; conditions: corresponding to the nM values; read-out: IC50 to AT1 receptor, as mass concentration (converted)
T1 sequence (P30556 1-359): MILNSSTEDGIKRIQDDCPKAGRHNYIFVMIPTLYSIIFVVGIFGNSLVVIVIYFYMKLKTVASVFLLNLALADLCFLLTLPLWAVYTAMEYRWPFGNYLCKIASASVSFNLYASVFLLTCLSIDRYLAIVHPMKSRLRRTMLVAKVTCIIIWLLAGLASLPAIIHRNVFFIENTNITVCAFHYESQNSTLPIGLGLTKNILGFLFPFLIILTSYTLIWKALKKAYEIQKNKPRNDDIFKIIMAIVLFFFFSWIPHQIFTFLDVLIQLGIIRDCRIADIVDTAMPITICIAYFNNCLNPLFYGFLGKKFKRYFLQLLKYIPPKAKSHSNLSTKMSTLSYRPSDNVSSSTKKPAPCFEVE

AT1 receptor [3] = biological target: T1, AT1 receptor; conditions: cited from earlier work
[4] = aqueous media; compared with valsartan; cited from earlier work

IC50 (AT1 receptor [2]) [nM]	SMILES	lowering of MBP ([1]; 25 mg/kg, 2 h after administration)	MBP at t=24 h ([1]; 25 mg/kg, 24 h after administration)	effect on MBP 2 h after injection ([1]; 2 h after injection)	MBP after administration ([1]; reduction from 105 mmHg) [mmHg]	IC50 (AT1 receptor [3]) [nM]	affinity for AT1 receptor (AT1 receptor [3]; versus losartan, telmisartan, valsartan (Bhuiyan 2013))	solubility [4]
	CCCCC(=O)N(Cc1ccc(-c2ccccc2-c2nnn[nH]2)cc1)[C@H](C(=O)O)C(C)C [Valsartan, (2S)-3-methyl-2-[pentanoyl-[[4-[2-(2H-tetrazol-5-yl)phenyl]phenyl]methyl]amino]butanoic acid]	~ 35 units	returned to baseline	reduction in MBP	70			
2.95	CCOc1nc2cccc(C(=O)O)c2n1Cc1ccc(-c2ccccc2-c2nnn[nH]2)cc1 [Candesartan, 2-ethoxy-3-[[4-[2-(2H-tetrazol-5-yl)phenyl]phenyl]methyl]benzimidazole-4-carboxylic acid]					3	highest affinity	very limited; also recorded: not soluble
